Reference: patent US20250281474A1, “PHARMACEUTICAL COMPOSITION FOR TREATING COGNITIVE DECLINE OR FOR TREATING OVERWEIGHTNESS OR OBESITY” (University of the Ryukyus, priority 2021, published 2025)

What was measured:
[1] = system: CP-AMPAR; experiment: Ca2+ imaging of hippocampal brain slices, AMPA+CTZ application, ob/ob mice; type: cell-based, mouse
[2] = system: HFD-fed mice; experiment: MRI volumetric analysis of mouse hippocampus; type: in vivo; settings: HFD-fed mice n=8 treated with PER; left CA1 and DG, right CA1, CA3 and DG
Excerpt: Anatomical brain images of 8 ex vivo mice with CD, HFD, PER treatment were acquired using a Bruker BioSpec 117/11 11.75 Tesla MRI scanner (Bruker BioSpin GmbH, Ettlingen, Germany). MPRAGE (three-dimensional (3D)-prepared rapid gradient-echo) sequences were acquired as high resolution 100 μm iso-voxel images for voxel-based morphometry (matrix size: 280×220×220; field of view: 28×22×22 mm, repetition time: 2000 ms, echo time: 1.78 ms, flip angle: 12 degrees, inversion time: 800 ms, echo train length: 13, average number of times: 2).
A region of interest was drawn in the acquired data image using a rapid acquisition protocol by relaxation enhancement (RARE) sequence (matrix size: 280×220×220, field of view: 28×22×22 mm; repeat time: 1500 ms; echo time: 25 ms; flip angle: 180°). The MPRAGE image and the RARE image were simultaneously acquired by one single scan.
MRI data acquisition of ex vivo mice was acquired by simultaneously placing the head parts of four mice fixed with PBS into an MRI coil. Brains of four mice were confirmed using raw MRI data. […]
The volume of subfields of the hippocampus (CA1, CA2, CA3, DG, EC) was calculated using the ROI file (31, 33, 51, 52). […]

[3] = system: NL-GF mice; experiment: Novel object recognition test, AD model mice (NL-GF); type: in vivo, mouse; settings: NL-GF mice n=5; CD diet with perampanel 5 mg/kg body weight/day from 8 to 13 weeks of age
Experimental: Mice of CD, HFD, and HFD with PER treatment were handled daily for 5 minutes for 5 days prior to the start of the novel object recognition test. PER means the perampanel, which is an AMPA receptor antagonist. The mice were habituated to a 35 cm square, 25 cm high box for 10 minutes on the first day, and were given 2 identical objects (familiar objects) for 10 minutes on the second day. On the third day, one of the familiar objects was replaced with a novel object of different shape and color (FIG. 2F). […] The search time for each object was measured by offline analysis (47).
NL-GF mice begin to accumulate in the brain of Aβ from 8 weeks of age (Nat. Neurosci. 2014 17,661-4). In this example, the AD model mouse (n=5) was fed a CD diet containing a perampanel at a dose of 5 mg/kg body weight/day from 8 to 13 weeks of age, and the mouse was subjected to a novel object recognition test. In the negative control (n=5), a normal CD diet without perampanel was taken.

[4] = system: ob/ob mice; experiment: Immunohistochemical analysis (MAP2, GluA1, GluA2, DCX), ob/ob mice; type: in vivo, mouse; settings: ob/ob mice with PER
Excerpt: Mouse brains were perfusion-fixed with 4% paraformaldehyde, embedded in paraffin, and cut into 4 micrometer thick sections to be used for immunohistochemical analysis of monoclonal antibodies against DCX (E-6 monoclonal, 1:50, Santa Cruz Biotechnology Inc, Dallas, USA), MAP2ab (AP-20 monoclonal, 1:100, SIGMA-ALDRICH, St. Louis, USA), GluA1 (AB1540 polyclonal, 1:100, EMD Millipore Corp., Burlington, USA), and GluA2 (AB 1768-1 polyclonal, 1:5, EMD Millipore Corp., Burlington, USA).
The immunostained region in each of the expression regions of MAP2, GluA1, and GluA2 was acquired using a ZVI format AxioVision (Carl Zeiss, Germany) microscope (objective lens 20×). Generation of data image processing with image segmentation was performed using machine learning with ZEN Intelliesis software. 1000 or more cells were examined in each group. One-way variance analysis was used for testing variance among the three groups excluding data of 3SD or higher. Then, the following number of samples was used.
Similar to the HFD mouse model, ob/ob mice had reduced dendritic arbors integrity as determined by MAP2 staining (FIG. 12). […] In addition, the maturation of the protrusions of DCX-positive cells progressed by treatment with PER for 12 weeks (FIG. 14).

[5] = system: neurospheres established from NL-G-F(−/−) mice; experiment: Neurosphere culture from NL-G-F(-/-) mouse hippocampus: Aβ42/Aβ40 EIA and Aβ staining; type: cell-based
Excerpt: Biomarkers of Alzheimer's dementia include the Aβ42/Aβ40 ratio of cerebrospinal fluid (CSF) and plasma levels, phosphorylated tau (P-tau) in threonines 181 and 217, and neurofilament lite (NfL) (Curr Opin Neurol 2021 1 266-274). The Aβ42/Aβ40 ratio is considered to be able to predict Aβ accumulation in PET (Doecke J D et al., Neurology 2020). Hippocampus on 17 to 19 days of NL-G-F(−/−) mouse embryonic life was taken out and cultured by a Neurosphere method by Brewer G J et al. (Nat Protoc 2007 2, 1490-1498), and a supernatant was measured by an EIA method using this culture system. The change in the Aβ42/Aβ40 ratio by the perampanel (50 μM/methyl cellulose 4 μL) was analyzed. In 4 μL of a 0.5 w/v % aqueous solution of methyl cellulose 400, 5×10^4 spheres smaller than 50 μm in diameter were cultured in 50 ml Falcon Flask coated with poly-D-lysine/laminin, and Aβ42 and Aβ40 of the supernatant were measured by EIA method on the second day (FIG. 29A) and the fourth day (FIG. 29B) of culture. The solvent was administered 12 hours after seeding.

For `N#Cc1ccccc1-c1cc(-c2ccccn2)cn(-c2ccccc2)c1=O` [PER, 3-(2-cyanophenyl)-5-(2-pyridyl)-1-phenyl-1,2-dihydropyridine-2-one], the “inhibitory effect on CP-AMPAR in EC, CA1, CA2, CA3, DG” value ([1]; ob/ob mice slices, 100 μM, p<0.05 (FIG. 10-1A)) was “significant inhibitory effect”, the “Ca2+ permeability via CP-AMPAR in all hippocampal subregions” value ([1]; ob/ob mice, PER administration, p<0.05) was “significant inactivation” and the “hippocampal volume (printed brain weight) by volumetric analysis” value [2] was “significantly restored”. The “novel object recognition test” value [3] was “significantly distinguish”, the “GluA1 expression in CA1 (immunoreactive regions)” value [4] was “restored” and the “ratio of GluA2/GluA1 (immunoreactive regions)” value [4] was “restored”. The “Aβ staining of the culture” value ([5]; fourth day of culture, formic acid treatment) was “decrease in Aβ” and the “Aβ42/Aβ40 ratio of the culture supernatant (EIA)” value ([5]; perampanel 50 μM/methyl cellulose 4 μL, second and fourth day of culture) was “significantly increased”.
